# Measured values as given in PMC4232510, “Identification of Functionally Important Residues of the Rat P2X4 Receptor by Alanine Scanning Mutagenesis of the Dorsal Fin and Left Flipper Domains” (PLoS ONE, 2014).
# Residue numbers refer to the chain shown, from its start.
# Key:
# Experiment in all cases: whole-cell patch clamp, HEK293T cells expressing mutant
# Assay type in all cases: cell-based
# Conditions in all cases: for relative responsiveness: 100 µM agonist 2 s, relative to ATP (100%)
# [1] = biological target: T1, rP2X4R I205A mutant (Rattus norvegicus, UniProt P51577, I205A)
# T1 construct: expressed in transfected cells; host or cells: HEK293T
# T1 sequence (P51577 1-388 I205A): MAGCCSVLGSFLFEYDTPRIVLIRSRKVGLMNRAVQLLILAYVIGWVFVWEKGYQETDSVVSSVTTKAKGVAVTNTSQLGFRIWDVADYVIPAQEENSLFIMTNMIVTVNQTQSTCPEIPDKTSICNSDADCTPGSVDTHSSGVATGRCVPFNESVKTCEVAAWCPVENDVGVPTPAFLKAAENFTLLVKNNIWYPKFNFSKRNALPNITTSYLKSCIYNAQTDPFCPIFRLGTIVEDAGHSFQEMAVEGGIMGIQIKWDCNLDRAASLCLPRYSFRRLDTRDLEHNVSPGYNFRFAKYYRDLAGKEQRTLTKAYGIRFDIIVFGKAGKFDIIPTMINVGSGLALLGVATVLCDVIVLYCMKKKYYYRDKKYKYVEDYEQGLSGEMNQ
# [2] = biological target: T2, rP2X4R L206A mutant (Rattus norvegicus, UniProt P51577, L206A)
# T2 construct: expressed in transfected cells; host or cells: HEK293T
# T2 sequence (P51577 1-388 L206A): T1 sequence (P51577 1-388 I205A) with A205I, L206A
# [3] = biological target: T3, rP2X4R Y213A mutant (Rattus norvegicus, UniProt P51577, Y213A)
# T3 construct: expressed in transfected cells; host or cells: HEK293T
# T3 sequence (P51577 1-388 Y213A): T1 sequence (P51577 1-388 I205A) with A205I, Y213A
# [4] = 100 µM ATP 60 s, biexponential fit
# [5] = contribution of τdes2, 100 µM ATP 60 s
# [6] = decay after removal of 1 or 3 µM ATP, 3 µM IVM
# [7] = naïve receptors, 2–5 s application
# [8] = 3 µM IVM 4-6 min vs IVM-untreated
compound,measurement,setting,value
"CSc1nc(N)c2ncn([C@@H]3O[C@H](COP(=O)(O)OP(=O)(O)OP(=O)(O)O)[C@@H](O)[C@H]3O)c2n1 [2-MeS-ATP, 2-(Methylthio)adenosine 5′-triphosphate]",relative responsiveness,[1],35.6±1.9 %
same,relative responsiveness,[2],68.3±6.5%
same,relative responsiveness,[3],63.8±16.4%
2′(3′-O-(4-Benzoylbenzoyl)adenosine 5′-triphosphate [BzATP],relative responsiveness,[1],4.4±2.6 %
same,relative responsiveness,[2],33.7±8.0%
same,relative responsiveness,[3],27.3±5.5%
Nc1ncnc2c1ncn2[C@@H]1O[C@H](COP(=O)(O)OP(=O)(O)OP(=O)(O)O)[C@@H](O)[C@H]1O [ATP],EC50 rightward shift compared to WT,[1],approximately 10 fold
same,τdes1,[1]; [4],1.5 ± 0.7 s
same,τdes2,[1]; [4],8.1 ± 1.3 s
same,Imax,[1]; 100–1000 µM ATP,0.6 ± 0.13 nA
same,Imax+IVM,[1]; ATP after 3 µM IVM 4-6 min,4.3 ± 0.4 nA
same,A2 /(A1+A2),[1]; [5],51 ± 4%
same,τoff +IVM,[1]; [6],4.1 ± 0.9 s
same,EC50,[1]; [7],26 ± 7.7 µM
same,τdes,"[1]; weighted, 100 µM ATP 60 s",4.9 ± 0.9. s
same,τdes1,[2]; [4],1.1 ± 0.2 s
same,τdes2,[2]; [4],8.9 ± 2.2 s
same,Imax,[2]; 100–1000 µM ATP,2.4 ± 0.3 nA
same,Imax+IVM,[2]; ATP after 3 µM IVM 4-6 min,4.8 ± 0.8 nA
same,A2 /(A1+A2),[2]; [5],70 ± 4%
same,τoff +IVM,[2]; [6],9.0 ± 1.4 s
same,EC50,[2]; [7],10 ± 4.1 µM
same,τdes,"[2]; weighted, 100 µM ATP 60 s",6.3 ± 1.6 s
same,τdes1,[3]; [4],3.0 ± 0.3 s
same,τdes2,[3]; [4],12.4 ± 1.6 s
same,Imax,[3]; 100–1000 µM ATP,2.2 ± 0.4 nA
same,Imax+IVM,[3]; ATP after 3 µM IVM 4-6 min,3.1 ± 0.2 nA
same,A2 /(A1+A2),[3]; [5],61 ± 6%
same,τoff +IVM,[3]; [6],18 ± 4.3 s
same,EC50,[3]; [7],6 ± 0.9 µM
same,τdes,"[3]; weighted, 100 µM ATP 60 s",8.5 ± 0.8 s
"Nc1ncnc2c1ncn2C1OC(COP(=O)(O)CP(=O)(O)OP(=O)(O)O)C(O)C1O (stereo not drawn) [α,β-meATP, α,β-methyleneadenosine 5′-triphosphate]",relative responsiveness,[1],4.6±1.0 %
same,relative responsiveness,[2],27.5±2.5%
same,relative responsiveness,[3],31.3±6.7%
"Nc1ncnc2c1ncn2[C@@H]1O[C@H](CO[P@](=O)(O)O[P@](=O)(O)O[P@@](=O)(O)S)[C@@H](O)[C@H]1O [ATPγS, Adenosine 5′-(γ-thio)triphosphate]",relative responsiveness,[1],11.3±2.2 %
same,relative responsiveness,[2],39.6±8.4%
same,relative responsiveness,[3],37.1±5.5%
"CC[C@H](C)[C@H]1O[C@]2(CC[C@@H]1C)C[C@@H]1C[C@@H](C/C=C(\C)[C@@H](O[C@H]3C[C@H](OC)[C@@H](O[C@H]4C[C@H](OC)[C@@H](O)[C@H](C)O4)[C@H](C)O3)[C@@H](C)/C=C/C=C3\CO[C@@H]4[C@H](O)C(C)=C[C@@H](C(=O)O1)[C@]34O)O2 [IVM, ivermectin]",Fold incr. Imax,[1]; [8],5.5 ± 0.6 fold
same,Fold incr. Imax,[2]; [8],1.7 ± 0.2 fold
same,Fold incr. Imax,[3]; [8],1.4 ± 0.1 fold
